# Tests used:
# Assay type in all cases: cell-based
# [1] = tested on: cultured human dendritic cells (DC); assay: Flow cytometry of cell surface activation markers on human DCs restimulated 72 hours with AGPs (titration)
# Experimental: Dendritic cells are developed in-vitro from human CD14+ monocyte precursors using standard 7 day GM-CSF ([…]) and IL-4 ([…]) culture conditions. The cultured DCs are >90% CD11c^+/HLA-DR^+/lineage^− by flow cytometry analysis. FIGS. 15-18 show the results of flow cytometry analysis of gated CD11c^+/HLA-DR^+/lineage^− human DCs after they were restimulated in-vitro for 72 hours in the presence of selected AGPs at a titration range of 0.1 μg/ml-2 μg/ml. Data is expressed as the percent of gated DCs which are positive for the indicated marker (y-axis) versus the logo10 of the AGP or lipid A concentration. R595 LPS was used in each induction at 10 ng/ml as a positive control—the negative control was unstimulated human dendritic cells cultured for 72 hours in the same medium conditions used for AGP stimulation. Data was analyzed using non-linear regression analysis—all data was modeled using a 3rd order polynomial to determiine the best curve fit.
# [2] = tested on: cultured human DCs + autologous T cells
# [3] = tested on: Human d7 Cultured Dendritic Cells; assay: Flow cytometry phenotype analysis of human d7 cultured dendritic cells after 24 h stimulation; conditions: LPS 10 ng/ml, others 100 ng/ml; for HLA-DR MFI: 7 day DCs, 24 h stimulation
# [4] = tested on: murine bone marrow derived DCs + D011.10 T cells; assay: APC function of ova-pulsed, lipid A potentiated murine DCs co-cultured with D011.10 T cells (cytokine ELISA)
# Description: These antigen pulsed, lipid A potentiated cells were then washed thoroughly and titered against ova-specific T cell effector cells in vitro at an APC: T cell ratio titration of 1:1 out to as high as 1:512. The effector T cells in this in vitro assay were the antigen naive, but antigen (ova) specific, MHC restricted I-A^d splenic T cells from transgenic D011.10 mice.
# D011.10 TCR-transgenic mice were used in these experiments as donors of antigen specific naive T cells. In their germline DNA these mice contain rearranged TCR-Vα and -Vβ genes that encode a T cell receptor (TCR) specific for the ovalbumin peptide 323-339 bound to IA^d (Balb/c) Class II MHC molecules. The transgenic ova peptide specific TCR can be detected with the KJ1-26 monoclonal antibody (mAb) that binds only to this particular TCR heterodimer. These cells provide a ready source of “normal” antigen (ova)-specific effector T cells. Effective antigen-mediated APC stimulation of those T cells is generally measured by ELISA quantitation of IL-2 or IFN-γ in the culture supernatants of DC+D011.10 T cells after 24-48 hours of incubation.
# In one experiment, murine bone marrow derived DCs (6 day cultures) were pulsed with ova (50 μg/ml-5×10^5 cells/ml) and then potentiated overnight with LPS(R595), MPL® immunostimulant-S, RC-527, RC-529 or RC-544 prior to being cultured together with naive D011.10 effector T cells (FIGS. 1-7). The APC function of these DCs as measured by their ability to stimulate IL-2, IFN-γ IL-12 (p70) and IL-12 (p40) secretion in the DC+D011.10 co-culture systems was analyzed. All of the data shown in FIGS. 1-7 was developed from DCs maintained in lipid A induction cultures for either 15 or 38 hours prior to use in the T cell assay.
# [5] = single analysis, one normal donor
smiles,measurement,setting,value
CCCCCCCCCCCC(CC(=O)NC(COC1OC(CO)C(OP(=O)(O)O)C(OC(=O)CC(CCCCCCCCCCC)OC(=O)CCCCCCCCC)C1NC(=O)CC(CCCCCCCCCCC)OC(=O)CCCCCCCCC)C(=O)O)OC(=O)CCCCCCCCC (centres unmarked) [RC-527],cell surface expression of CD80 (in words),"[1]; 72 hours, titration 0.1-2 μg/ml, FIG. 15",highest level of increased cell surface expression
same,DC expression of CD83 (in words),"[1]; 72 hours, titration 0.1-2 μg/ml, FIG. 16",highest DC expression levels
same,cell surface expression of CD40 (in words),"[1]; 72 hours, titration 0.1-2 μg/ml, FIG. 17",highest elevated cell surface expression
same,concentration at which the effect is usually already maximized,[1]; [5],100 ng/mL
same,overall induction of DC maturation and co-stimulatory molecule expression (in words),[1]; [5],strongest induction of DC maturation and co-stimulatory molecule expression of all the AGPs tested
same,"T cell proliferation / DC activation, CPM 3H-thymidine response (in words)",[2],highest levels of DC activation compared to MPL® immunostimulant
same,CD 1a % positive cells,"[3]; Exp. 091698, 24 h",93.5%
same,CD 1a MFI,"[3]; Exp. 091698, 24 h",8.71
same,CD 4 % positive cells,"[3]; Exp. 091698, 24 h",69.5%
same,CD 4 MFI,"[3]; Exp. 091698, 24 h",2.33
same,CD 14 % positive cells,"[3]; Exp. 091698, 24 h",4.2%
same,CD 35 % positive cells,"[3]; Exp. 091698, 24 h",49.4%
same,CD 35 MFI,"[3]; Exp. 091698, 24 h",2.74
same,CD 40 MFI,"[3]; Exp. 091698, 24 h",43.0
same,CD 44 MFI,"[3]; Exp. 091698, 24 h",329
same,CD 54 MFI,"[3]; Exp. 091698, 24 h",34.9
same,CD 62 L % positive cells,"[3]; Exp. 091698, 24 h",11.2%
same,CD 69 % positive cells,"[3]; Exp. 091698, 24 h",16.1%
same,CD 80 % positive cells,"[3]; Exp. 091698, 24 h",99.5%
same,CD 80 MFI,"[3]; Exp. 091698, 24 h",8.37
same,CD 83 % positive cells,"[3]; Exp. 091698, 24 h",97.0%
same,CD 83 MFI,"[3]; Exp. 091698, 24 h",3.52
same,CD 86 % positive cells,"[3]; Exp. 091698, 24 h",99.8%
same,CD 86 MFI,"[3]; Exp. 091698, 24 h",18.1
same,CD 95 % positive cells,"[3]; Exp. 091698, 24 h",93.6%
same,CD 95 MFI,"[3]; Exp. 091698, 24 h",1.61
same,HLA-DR MFI,[3]; Exp. 091698,74.2
same,CD 1a % positive cells,"[3]; Exp. 092398, 24 h",84.1%
same,CD 1a MFI,"[3]; Exp. 092398, 24 h",5.57
same,CD 4 % positive cells,"[3]; Exp. 092398, 24 h",69.5%
same,CD 4 MFI,"[3]; Exp. 092398, 24 h",2.66
same,CD 14 % positive cells,"[3]; Exp. 092398, 24 h",4.3%
same,CD 35 % positive cells,"[3]; Exp. 092398, 24 h",65.1%
same,CD 35 MFI,"[3]; Exp. 092398, 24 h",3.02
same,CD 40 MFI,"[3]; Exp. 092398, 24 h",35.0
same,CD 54 MFI,"[3]; Exp. 092398, 24 h",42.6
same,CD 62 L % positive cells,"[3]; Exp. 092398, 24 h",13.6%
same,CD 69 % positive cells,"[3]; Exp. 092398, 24 h",10.5%
same,CD 80 % positive cells,"[3]; Exp. 092398, 24 h",99.4%
same,CD 80 MFI,"[3]; Exp. 092398, 24 h",12.7
same,CD 83 % positive cells,"[3]; Exp. 092398, 24 h",97.6%
same,CD 83 MFI,"[3]; Exp. 092398, 24 h",3.57
same,CD 86 % positive cells,"[3]; Exp. 092398, 24 h",99.9%
same,CD 86 MFI,"[3]; Exp. 092398, 24 h",28.0
same,CD 95 % positive cells,"[3]; Exp. 092398, 24 h",94.8%
same,CD 95 MFI,"[3]; Exp. 092398, 24 h",1.78
same,αC5aR + GAR Alexa % positive cells,"[3]; Exp. 092398, 24 h",42.3%
same,CD 44 MFI,"[3]; Exp. 092398, 24 h, values printed with a trailing +",499+
same,GAR-Alexa % positive cells,"[3]; Exp. 092398, 24 h, secondary reagent staining",2.9%
same,HLA-DR MFI,[3]; Exp. 092398,107.8
same,CCR 6 % positive cells,"[3]; Exp. 093098, 24 h",4.0%
same,CD 1a % positive cells,"[3]; Exp. 093098, 24 h",80.3%
same,CD 1a MFI,"[3]; Exp. 093098, 24 h",6.83
same,CD 3 % positive cells,"[3]; Exp. 093098, 24 h",28.5%
same,CD 3 MFI,"[3]; Exp. 093098, 24 h",3.89
same,CD 4 % positive cells,"[3]; Exp. 093098, 24 h",75.2%
same,CD 4 MFI,"[3]; Exp. 093098, 24 h",3.06
same,CD 11c % positive cells,"[3]; Exp. 093098, 24 h",92.6%
same,CD 11c MFI,"[3]; Exp. 093098, 24 h",6.77
same,CD 14 % positive cells,"[3]; Exp. 093098, 24 h",3.3%
same,CD 40 MFI,"[3]; Exp. 093098, 24 h",34.9
same,CD 54 MFI,"[3]; Exp. 093098, 24 h",47.0
same,CD 62 L % positive cells,"[3]; Exp. 093098, 24 h",3.0%
same,CD 80 % positive cells,"[3]; Exp. 093098, 24 h",98.9%
same,CD 80 MFI,"[3]; Exp. 093098, 24 h",13.1
same,CD 83 % positive cells,"[3]; Exp. 093098, 24 h",92.6%
same,CD 83 MFI,"[3]; Exp. 093098, 24 h",3.63
same,CD 86 % positive cells,"[3]; Exp. 093098, 24 h",99.5%
same,CD 86 MFI,"[3]; Exp. 093098, 24 h",27.4
same,CD 123 % positive cells,"[3]; Exp. 093098, 24 h",52.9%
same,CD 123 MFI,"[3]; Exp. 093098, 24 h",1.99
same,αC5aR + Alexa 488 % positive cells,"[3]; Exp. 093098, 24 h",42.7%
same,αC5aR + Alexa 488 MFI,"[3]; Exp. 093098, 24 h",8.17
same,HLA-DR MFI,[3]; Exp. 093098,172.9
same,IFN-γ release by D011.10 T cells (in words),"[4]; DCs precultured 38 hours, FIG. 3",generally more potent
same,IFN-γ secretion by D011.10 cells (in words),"[4]; DCs prestimulated 15 hours, FIG. 2",high levels of IFN-γ release
same,IL-2 secretion (in words),"[4]; DCs prestimulated 15 hours, all T cell:APC ratios, FIG. 1",comparable in their ability to stimulate IL-2 secretion
same,IFN-γ secretion at T cell:APC ratio 32:1 (in words),[4]; FIG. 4,comparable to that observed with LPS
same,IL-12 (p70) in DC+D011.10 co-cultures (in words),[4]; FIG. 5,most potent
same,release of IL-12 (p40) homodimer in DC+D011.10 co-cultures (in words),[4]; FIG. 7,most potent effect
